Measurements: ChEMBL document CHEMBL1125532, “Synthesis and cholinergic properties of N-aryl-2-[[[5-[(dimethylamino)methyl]-2-furanyl]methyl]thio]ethylamino analogs of ranitidine” (J Med Chem, 1992)
Substitutions are numbered along the chain they refer to. Active and inactive are the calls of the source. No cut-off for these calls is given here.

Legend:
[1] = target: T1, Muscarinic acetylcholine receptor M2 (Mus musculus, UniProt Q9ERZ4); experiment: biochemical
T1 sequence (Q9ERZ4 whole entry): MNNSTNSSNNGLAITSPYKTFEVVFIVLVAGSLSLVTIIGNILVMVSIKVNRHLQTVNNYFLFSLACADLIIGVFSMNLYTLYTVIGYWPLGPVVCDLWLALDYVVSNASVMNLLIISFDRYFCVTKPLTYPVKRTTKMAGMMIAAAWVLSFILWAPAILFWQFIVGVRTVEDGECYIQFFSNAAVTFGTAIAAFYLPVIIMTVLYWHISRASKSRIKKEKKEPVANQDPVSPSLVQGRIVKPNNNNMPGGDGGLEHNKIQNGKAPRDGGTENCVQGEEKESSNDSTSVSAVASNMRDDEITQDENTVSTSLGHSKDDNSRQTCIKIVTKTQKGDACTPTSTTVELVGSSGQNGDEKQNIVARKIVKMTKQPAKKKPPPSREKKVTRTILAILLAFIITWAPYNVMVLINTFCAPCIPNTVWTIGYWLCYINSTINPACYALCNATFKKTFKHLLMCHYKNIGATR

[2] = target: T1, Muscarinic acetylcholine receptor M2; experiment: biochemical; remark: listed apart in the source
[3] = target: T2, Acetylcholinesterase (Homo sapiens, UniProt P22303)
T2 sequence (P22303 whole entry): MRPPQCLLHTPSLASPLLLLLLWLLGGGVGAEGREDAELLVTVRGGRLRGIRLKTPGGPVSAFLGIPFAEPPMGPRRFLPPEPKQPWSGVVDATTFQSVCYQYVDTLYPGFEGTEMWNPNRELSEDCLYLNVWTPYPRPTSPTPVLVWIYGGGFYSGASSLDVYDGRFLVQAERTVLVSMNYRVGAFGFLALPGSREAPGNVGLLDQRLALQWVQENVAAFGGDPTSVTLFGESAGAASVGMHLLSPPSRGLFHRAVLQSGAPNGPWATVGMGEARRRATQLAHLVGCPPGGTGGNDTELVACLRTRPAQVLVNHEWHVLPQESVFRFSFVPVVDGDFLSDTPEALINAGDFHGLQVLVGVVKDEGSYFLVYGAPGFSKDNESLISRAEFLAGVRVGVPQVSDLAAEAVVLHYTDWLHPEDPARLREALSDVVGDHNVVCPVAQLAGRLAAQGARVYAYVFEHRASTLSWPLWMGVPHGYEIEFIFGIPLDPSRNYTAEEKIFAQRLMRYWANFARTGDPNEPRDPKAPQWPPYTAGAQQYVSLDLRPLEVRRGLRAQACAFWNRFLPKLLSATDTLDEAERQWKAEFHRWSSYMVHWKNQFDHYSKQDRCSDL
Description: In vitro inhibition of human acetylcholinesterase.

[4] = target: Cholinesterase (Homo sapiens, UniProt P06276)
Chain of Cholinesterase (P06276 whole entry): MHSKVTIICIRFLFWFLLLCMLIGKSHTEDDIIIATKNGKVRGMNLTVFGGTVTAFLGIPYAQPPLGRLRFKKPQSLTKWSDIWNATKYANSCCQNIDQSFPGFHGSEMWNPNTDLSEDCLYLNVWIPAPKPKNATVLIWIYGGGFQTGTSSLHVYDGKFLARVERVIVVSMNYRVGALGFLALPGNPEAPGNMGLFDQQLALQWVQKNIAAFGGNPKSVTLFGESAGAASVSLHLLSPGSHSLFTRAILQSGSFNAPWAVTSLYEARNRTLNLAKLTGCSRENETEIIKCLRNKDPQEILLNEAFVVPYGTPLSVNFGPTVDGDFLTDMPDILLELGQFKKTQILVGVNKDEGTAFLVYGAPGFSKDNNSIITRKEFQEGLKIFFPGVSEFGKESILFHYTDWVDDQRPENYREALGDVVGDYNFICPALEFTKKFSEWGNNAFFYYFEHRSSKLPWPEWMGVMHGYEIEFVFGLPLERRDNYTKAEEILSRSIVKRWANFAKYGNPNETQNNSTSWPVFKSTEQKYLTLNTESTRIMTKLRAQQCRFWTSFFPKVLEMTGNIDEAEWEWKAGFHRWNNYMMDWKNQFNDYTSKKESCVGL
Description: In vitro inhibition of human butryl cholinesterase.

[5] = target: Cholinesterases; ACHE & BCHE (Homo sapiens) (UniProt P06276+P22303); experiment: Ratio of IC50(BChE-I) to IC50(AChE-I); format: protein assay
Chain of Cholinesterases; ACHE & BCHE (Homo sapiens) (P06276 whole entry, looked up): as the sequence (P06276 whole entry) above
Chain of Cholinesterases; ACHE & BCHE (Homo sapiens) (P22303 whole entry, looked up): as the sequence (P22303 whole entry) above

[6] = organism: Rattus norvegicus; experiment: Ratio of IC50 (muscarinic acetylcholine receptor M2) to IC50 (muscarinic acetylcholine receptor M1)
[7] = target: T3, Muscarinic acetylcholine receptor M2 (Rattus norvegicus, UniProt P10980)
T3 sequence (P10980 whole entry): T1 sequence (Q9ERZ4 whole entry) with G270V, K316R, R321K, T331A, A336V
Description: Inhibition of [3H]N-methylscopolamine to rat muscarinic acetylcholine receptor M2 from heart tissue

[8] = organism: Rattus norvegicus
[9] = target: T4, Muscarinic acetylcholine receptor M1 (Mus musculus, UniProt P12657); experiment: biochemical
T4 sequence (P12657 whole entry): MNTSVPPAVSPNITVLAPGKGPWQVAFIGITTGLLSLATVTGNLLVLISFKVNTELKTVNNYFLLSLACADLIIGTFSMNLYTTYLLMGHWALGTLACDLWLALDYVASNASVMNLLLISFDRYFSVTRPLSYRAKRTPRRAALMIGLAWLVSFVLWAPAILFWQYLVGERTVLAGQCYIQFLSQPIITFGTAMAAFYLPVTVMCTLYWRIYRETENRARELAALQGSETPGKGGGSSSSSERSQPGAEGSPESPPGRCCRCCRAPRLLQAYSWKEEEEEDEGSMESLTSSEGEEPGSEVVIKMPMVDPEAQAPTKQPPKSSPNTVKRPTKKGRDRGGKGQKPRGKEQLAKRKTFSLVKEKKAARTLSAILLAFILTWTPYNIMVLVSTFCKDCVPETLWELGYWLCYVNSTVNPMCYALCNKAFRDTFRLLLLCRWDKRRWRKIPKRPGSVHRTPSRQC
Description: Inhibition of [3H]pirenzepine binding to mouse muscarinic acetylcholine receptor M1 from cerebral cortex

[10] = target: T1, Muscarinic acetylcholine receptor M2; experiment: Ability to displace [3H]methylscopolamine ([3H]NMS) from mouse cerebral cortex; format: tissue-based
[11] = target: T1, Muscarinic acetylcholine receptor M2; experiment: Ability to displace [3H]oxotremorine ([3H]OXO-M) from mouse cerebral cortex; format: tissue-based
[12] = target: T3, Muscarinic acetylcholine receptor M2; experiment: Binding affinity against rat muscarinic acetylcholine receptor M2 using heart tissue and [3H]N-methylscopolamine
[13] = organism: Rattus norvegicus; experiment: Concentration required to potentiate the contraction of isolated rat ileum produced by 1 x 10 e -7 M Ach by 20 %; inactive; format: functional
[14] = system: Mus musculus; experiment: Effect on brain acetylcholine concentration in mice after intraperitoneal administration of 60% lethal dose (66 mg/kg); format: functional
[15] = system: Mus musculus; experiment: Effect on brain acetylcholine concentration in mice after intraperitoneal administration of 80% lethal dose (80 mg/kg)(***: p <= 0.001); format: functional
[16] = target: T2, Acetylcholinesterase; experiment: In vitro acetyl cholinesterase (AChE-I) inhibitory activity to determine its ability to reverse the cholinergic deficit characteristic of AD
[17] = target: T4, Muscarinic acetylcholine receptor M1; experiment: biochemical; remark: listed apart in the source
Description: Binding affinity against mouse Muscarinic acetylcholine receptor M1 using cerebral cortex and [3H]pirenzepine

[18] = system: Mus musculus; experiment: Effect on brain acetylcholine concentration in mice after intraperitoneal administration of 80% lethal dose (170 mg/kg); format: functional
[19] = system: Mus musculus; experiment: Effect on brain acetylcholine concentration in mice after intraperitoneal administration of 40% lethal dose (68 mg/kg; format: functional
[20] = system: Mus musculus; experiment: Effect on brain acetylcholine concentration in mice after intraperitoneal administration of 60% lethal dose (102 mg/kg); format: functional
[21] = system: Mus musculus; experiment: Effect on brain acetylcholine concentration in mice after intraperitoneal administration of 80% lethal dose (140 mg/kg); format: functional
[22] = system: Mus musculus; experiment: Effect on brain acetylcholine concentration in mice after intraperitoneal administration of 40% lethal dose (68 mg/kg); format: functional
[23] = target: T4, Muscarinic acetylcholine receptor M1; experiment: biochemical; remark: listed apart in the source
Description: Binding affinity against mouse muscarinic acetylcholine receptor M1 using cerebral cortex and [3H]pirenzepine

Compound | IC50 [3] | IC50 [4] | Ratio [5] | Ratio [6] | IC50 [7] | Ileal activity [8] | IC50 [9] | also measured
O=C1CCCN1CC#CCN1CCCC1 [OXOTREMORINE] | – | – | – | – | – | – | – | Ki [1]: 1500 nM; Ki [2]: 1.7 nM
CN(C)Cc1ccc(CSCCNc2cc(Nc3ncccc3[N+](=O)[O-])c([N+](=O)[O-])cc2[N+](=O)[O-])o1 | 650 nM | 18000 nM | – | – | – | – | – | –
CN(C)CCNc1cc(NCCSCc2ccc(CN(C)C)o2)c([N+](=O)[O-])cc1[N+](=O)[O-] | 520 nM | 1400 nM | 2.8 | 0.57 | 380 nM | <0.01 µM | 670 nM | –
C[N+](C)(C)CCOC(N)=O [CARBACHOL] | – | – | – | – | – | – | – | Ki [10]: 66000 nM; Ki [11]: 8 nM
CN(C)Cc1ccc(CSCCNc2cc(Nc3ccc(F)cc3)c([N+](=O)[O-])cc2[N+](=O)[O-])o1 | 680 nM | 1100 nM | 1.6 | 2.1 | 4400 nM | <0.01 µM | 2100 nM | –
CCCNc1cc(NCCSCc2ccc(CN(C)C)o2)c([N+](=O)[O-])cc1[N+](=O)[O-] | 260 nM | 3800 nM | 15 | 1.1 | – | <1 µM | 3200 nM | IC50 [12]: 3500 nM
CN(C)Cc1ccc(CSCCNc2cc(NCc3cccnc3)c([N+](=O)[O-])cc2[N+](=O)[O-])o1 | 310 nM | 6100 nM | 19 | 1.1 | 400 nM | – | 380 nM | Ileal activity [13]: inactive
CNc1cc(NCCSCc2ccc(CN(C)C)o2)c([N+](=O)[O-])cc1[N+](=O)[O-] | 160 nM | 3300 nM | 21 | 7.2 | – | – | 430 nM | IC50 [12]: 3100 nM; Ileal activity [13]: inactive
CN(C)Cc1ccc(CSCCNc2cc(F)c([N+](=O)[O-])cc2[N+](=O)[O-])o1 | 120 nM | 3800 nM | 33 | 3.9 | 7000 nM | <0.01 µM | 1800 nM | –
CN(C)Cc1ccc(CSCCNc2cc(N)c([N+](=O)[O-])cc2[N+](=O)[O-])o1 | 83 nM | 2400 nM | 28 | 1.8 | – | <0.1 µM | 3800 nM | % of control [14]: 126.8%; % of control [15]: 153.2%; IC50 [12]: 6800 nM; Ki [1]: 9500 nM; Ki [2]: 460 nM
CN(C)Cc1ccc(CSCCNc2ccc(F)cc2[N+](=O)[O-])o1 | 650 nM | 3300 nM | 5.1 | 0.6 | 2400 nM | – | 4000 nM | Ileal activity [13]: inactive
CC(C)=NNc1cc(NCCSCc2ccc(CN(C)C)o2)c([N+](=O)[O-])cc1[N+](=O)[O-] | 440 nM | 8400 nM | 19 | 1.1 | 3500 nM | <0.1 µM | 3100 nM | –
CN(C)Cc1ccc(CSCCNc2cc(NCCCN3CCOCC3)c([N+](=O)[O-])cc2[N+](=O)[O-])o1 | 370 nM | 4700 nM | 13 | 0.57 | 300 nM | <0.1 µM | 530 nM | –
CN(C)Cc1ccc(CSCCNc2cc(Oc3ccc([N+](=O)[O-])cc3)c([N+](=O)[O-])cc2[N+](=O)[O-])o1 | 270 nM | 1100 nM | – | – | – | – | – | –
CN(C)Cc1ccc(CSCCNc2cc(Nc3ccccc3C#N)c([N+](=O)[O-])cc2[N+](=O)[O-])o1 | 630 nM | 1800 nM | 2.8 | 1.1 | 3700 nM | – | 3300 nM | Ileal activity [13]: inactive
CCCCCNc1cc(NCCSCc2ccc(CN(C)C)o2)c([N+](=O)[O-])cc1[N+](=O)[O-] | 1200 nM | – | – | – | – | – | – | –
CN(C)Cc1ccc(CSCCNc2cc(Nc3ccccc3)c([N+](=O)[O-])cc2[N+](=O)[O-])o1 | 640 nM | 1600 nM | 2.5 | 1 | 6400 nM | – | 6400 nM | Ileal activity [13]: inactive
CN(C)Cc1ccc(CSCCNc2cccc(F)c2C#N)o1 | – | – | – | – | – | – | – | IC50 [16]: 2100 nM
CN(C)Cc1ccc(CSCCNc2cc(NCc3ccccc3)c([N+](=O)[O-])cc2[N+](=O)[O-])o1 | – | – | – | 1.7 | 3300 nM | – | 2000 nM | Ileal activity [13]: inactive
CNC(=O)Oc1ccc2c(c1)[C@]1(C)CCN(C)[C@@H]1N2C [PHYSOSTIGMINE] | – | – | – | – | 160000 nM | <0.005 µM | – | –
CN(C)Cc1ccc(CSCCNc2nnccc2[N+](=O)[O-])o1 | – | – | – | – | – | <0.1 µM | – | IC50 [16]: 470 nM; IC50 [17]: 970 nM
CN(C)Cc1ccc(CSCCNc2cc(NN)c([N+](=O)[O-])cc2[N+](=O)[O-])o1 | 76 nM | 5100 nM | 67 | 1.2 | 4700 nM | <0.1 µM | 3800 nM | % of control [18]: 126.8%; % of control [19]: 110%; % of control [20]: 128.8%; Ki [1]: 12000 nM; Ki [2]: 1100 nM
CN(C)Cc1ccc(CSCCNc2ccc([N+](=O)[O-])cc2[N+](=O)[O-])o1 | 200 nM | 1800 nM | 9.2 | 4.1 | 5700 nM | <0.02 µM | – | % of control [21]: 128.4%; % of control [22]: 110.8%; % of control [20]: 120.4%; Ki [1]: 12000 nM; Ki [2]: 870 nM; IC50 [23]: 1400 nM
CN(C)Cc1ccc(CSCCNc2cc(NCc3ccccn3)c([N+](=O)[O-])cc2[N+](=O)[O-])o1 | 1300 nM | 5200 nM | 4.1 | 1.6 | 2400 nM | <1 µM | 1500 nM | –
